# Where two headings read alike, the source gives them in different places.
# Key:
# [1] = system: HIV-1 virus (NL4.3 strain); assay: MT-2 based antiviral assay (S8737E); assay type: cell-based
# Source text: MT-2 Based Antiviral Assay (S8737E)
# This assay is designed to determine the effects of small molecules on the replication of HIV-1 in the lymphobastoid cell line, MT2, and is able to detect the antiviral effect of compounds acting at any stage of the HIV-1 replication cycle. The assay, along with its associated cytotoxicity assay, was described in detail in 2005 in a paper by Cao et al (Antimicrobial Agents and Chemotherapy 2005; 49(9), p 3833-3841).
# MT2 cells are infected with the HIV-1 virus (NL4.3 strain; Adachi et al., Journal of Virology 1986) and transferred to assay plates containing serial dilutions of compounds to be tested. The assay plates are incubated for 3 days (MT2) to allow for several rounds of viral replication/infection to take place. At the end of this time, supernatant is transferred into new plates containing JC53BL cells.
# JC53BL cells express CXCR4, CCR5 and CD4 receptors, and HIV-1-LTR-β-Gal. Under normal culture conditions undetectable levels of β-Galactosidase are expressed, but in the presence of HIV-1, the viral Tat protein is able to activate the HIV-1-LTR in the JC53BL cells resulting in the increased expression of the β-Gal enzyme. The expression can be measured using the ‘FluorAce β-Galactosidase reporter’ assay. The levels of β-Gal are directly proportional to the levels of Tat (up to a threshold) allowing virus quantification. Compounds that inhibit virus replication will give rise to a reduced signal and a dose-response curve for each compound can be generated. This is then used to determine the IC50 for each compound, a measure of the compound's potency.
# [2] = molecular target: T1, LEDGF-Integrase interaction (Human immunodeficiency virus type 1 group M subtype B, UniProt P12497); assay: HTRF Interaction assay (S9118); design: species or system HIV; settings: His6-tagged integrase and MBP-LEDGF integrase binding domain
# T1 construct: His6-tagged integrase (78 nM final concentration); purchased Prof; Zeger Debyser, Katholieke Universiteit Leuven (supplied by an academic laboratory, not a commercial vendor)
# Source text: • Adachi, A., Gendelman, H., Koenig, S., Folks, T., Wiley, R., Rabson, A. and Martin, M (1986) Production of acquired immunodeficency syndrome-associated retrovirus in human and nonhuman cells transfected with an infectious molecular clone, J. Virol., 59, 284-291. • Cao J, Isaacson J, Patick A K, Blair W S. (2005) High-throughput human immunodeficiency virus type 1 (HIV-1) full replication assay that includes HIV-1 Vif as an antiviral target Antimicrobial Agents and Chemotherapy; 49(9), p 3833-3841. Assay to Measure the LEDGF-Integrase Integration Inhibitory Activity of Compounds of the Invention HTRF Interaction Assay (S9118)
# An Homogeneous Time Resolved Fluorescence (HTRF) assay is performed in a manner similar to previous reports on HTRF protein assays as reviewed by Mathis (Clin. Chem., 2005). The assay procedure is performed as follows: reactions are performed in 20 μl final volume in 384-well black low volume microtiter plates (Greiner). The final reaction buffer contains 29 mM phosphase buffer (pH 7), 10 mM HEPES buffet (pH 7.4), 68.5 mM NaCl, 1.4 mM KCl, 400 mM KF 0.05% (w/v) pluronic acid (P104, Sigma Aldrich) and 1% (v/v) DMSO. His6-tagged integrase (78 nM final concentration) is incubated with […] fused to the Δ325 carboxy terminal integrase binding domain of LEDGF in the presence of compound for 2 hours at room temperature. Both these protein regents are supplied by Prof. Zeger Debyser of Katholleke Universiteit Leuven, Leuven, Belgium. The compounds are added at varying concentrations spanning a wide range from 0.1 up to 100 μM. Afterwards 8.3 nM of europium cryptate conjugated anti-MBP monoclonal antibody and 17 nM anti-His antibody conjugated with the acceptor fluorophore d2. Following a 2 hour room temperature incubation the plates are read on an EnVision™ microplate reader (Perkin Elmer) using an excitation wavelength of 320 nm. The ratio of fluorescence emitted at […] is used to assess the degree to which the protein-protein interaction had been inhibited.
# [3] = Human immunodeficiency virus 1, 72 h, read-out: Antiviral Activity (S8737E, μM), HIV-1 NL4.3 replication in MT2 cells, 3 days, β-Gal readout in JC53BL cells
SMILES,"IC50 [1, 3] [µM]",IC50 [2] [µM],IC50 ([2]; table values) [µM],"IC50 ([1]; read-out: Antiviral Activity (S8737E), HIV-1 NL4.3 replication in MT2 cells, 3 days, β-Gal readout in JC53BL cells) [µM]"
"Cc1ccc(-c2c([C@@H](OC(C)(C)C)C(=O)O)c(C)nc3sc4c(c23)CCCC4)c(O)c1 (single isomer, unassigned) [48, first eluting enantiomer]",0.089,4.12,,
"Cc1ccc(-c2c(C(OC(C)(C)C)C(=O)O)c(C)nc3sc4c(c23)CCCC4)c(O)c1 (single isomer, unassigned) [48, second eluting enantiomer]",0.013,0.576,,
"Cc1nc2sc3c(c2c(-c2ccc(Cl)cc2O)c1[C@H](OC(C)(C)C)C(=O)O)CCCC3 (single isomer, unassigned) [Atropisomer 46A]",0.014,0.558,,
"Cc1nc2sc3c(c2c(-c2cncnc2)c1C(OC(C)(C)C)C(=O)O)CCCC3 (stereo not drawn) [Example 1, Tert-butoxy(2-methyl-4-pyrimidin-5-yl-5,6,7,8-tetrahydro[1]benzothieno[2,3-b]pyridin-3-yl)acetic acid]",> 20,,,
Cc1nc2sc3c(c2c(-c2ccc4scnc4c2)c1C(OC(C)(C)C)C(=O)O)CCCC3 (stereo not drawn) [Example 4],0.282,,3.48,
CCc1ccc(-c2c(C(OC(C)(C)C)C(=O)O)c(C)nc3sc4c(c23)CCCC4)c(O)c1 (stereo not drawn) [Example 5],0.155,,2.7,
Cc1nc2sc3c(c2c(-c2ccc4cn[nH]c4c2)c1C(OC(C)(C)C)C(=O)O)CCCC3 (stereo not drawn) [Example 6],0.305,,2.63,
COc1ccc(-c2c(C(OC(C)(C)C)C(=O)O)c(C)nc3sc4c(c23)CCCC4)cn1 (stereo not drawn) [Example 7],0.436,,9.25,
CCn1cc(-c2c(C(OC(C)(C)C)C(=O)O)c(C)nc3sc4c(c23)CCCC4)cn1 (stereo not drawn) [Example 8],0.624,,23.8,
Cc1nc2sc3c(c2c(-c2ccc(C(F)(F)F)nc2)c1C(OC(C)(C)C)C(=O)O)CCCC3 (stereo not drawn) [Example 9],0.683,,11.7,
Cc1nc2sc3c(c2c(-c2ccc4cnn(C)c4c2)c1C(OC(C)(C)C)C(=O)O)CCCC3 (stereo not drawn) [Example 10],0.795,,7.87,
Cc1nc2sc3c(c2c(-c2ccc4cnn(C)c4c2)c1C(OC(C)(C)C)C(=O)O)CCCC3 (stereo not drawn) [Example 11],,,12.2,0.814
Cc1nc2sc3c(c2c(-c2ccc4c(cnn4C)c2)c1C(OC(C)(C)C)C(=O)O)CCCC3 (stereo not drawn) [Example 12],0.941,,5.13,
Cc1nc2sc3c(c2c(-c2ccccc2CO)c1C(OC(C)(C)C)C(=O)O)CCCC3 (stereo not drawn) [Example 13],0.957,,56.3,
COc1cc(-c2c(C(OC(C)(C)C)C(=O)O)c(C)nc3sc4c(c23)CCCC4)ccn1 (stereo not drawn) [Example 14],1.24,,28.4,
Cc1nc2sc3c(c2c(-c2ccc(C#N)cc2)c1C(OC(C)(C)C)C(=O)O)CCCC3 (stereo not drawn) [Example 15],1.28,,14.8,
Cc1nc2sc3c(c2c(-c2ccccc2O)c1C(OC(C)(C)C)C(=O)O)CCCC3 (stereo not drawn) [Example 16],1.73,,57.4,
Cc1nc2sc3c(c2c(-c2ccc4nccn4c2)c1C(OC(C)(C)C)C(=O)O)CCCC3 (stereo not drawn) [Example 17],1.78,,> 100,
Cc1nc2sc3c(c2c(-c2cnc4ccoc4c2)c1C(OC(C)(C)C)C(=O)O)CCCC3 (stereo not drawn) [Example 18],1.84,,30.3,

SMILES,"IC50 [1, 3] [µM]",IC50 [2] [µM],IC50 ([2]; table values) [µM],"IC50 ([1]; read-out: Antiviral Activity (S8737E), HIV-1 NL4.3 replication in MT2 cells, 3 days, β-Gal readout in JC53BL cells) [µM]"
Cc1nc2sc3c(c2c(-c2cccc(-c4nccn4C)c2)c1C(OC(C)(C)C)C(=O)O)CCCC3 (stereo not drawn) [Example 19],1.9,,46.5,
Cc1nc2cc(-c3c(C(OC(C)(C)C)C(=O)O)c(C)nc4sc5c(c34)CCCC5)ccc2s1 (stereo not drawn) [Example 20],2.01,,11.8,
CCOC(C(=O)O)c1c(C)nc2sc3c(c2c1-c1ccc2nsnc2c1)CCCC3 (stereo not drawn) [Example 21],2.17,,64.8,
Cc1nc2ccc(-c3c(C(OC(C)(C)C)C(=O)O)c(C)nc4sc5c(c34)CCCC5)cc2s1 (stereo not drawn) [Example 22],2.73,,12.8,
CCOC(C(=O)O)c1c(C)nc2sc3c(c2c1-c1ccc2cn[nH]c2c1)CCCC3 (stereo not drawn) [Example 23],2.73,,33.1,
Cc1nc2sc3c(c2c(-c2cccc4c2cnn4C)c1C(OC(C)(C)C)C(=O)O)CCCC3 (stereo not drawn) [Example 24],2.81,,7.59,
CCOC(C(=O)O)c1c(C)nc2sc3c(c2c1-c1ccccc1O)CCCC3 (stereo not drawn) [Example 25],4.07,,> 100,
Cc1nc2sc3c(c2c(-c2cccc(C#N)c2)c1C(OC(C)(C)C)C(=O)O)CCCC3 (stereo not drawn) [Example 26],4.51,,> 100,
Cc1nc2sc3c(c2c(-c2cccc(CO)c2)c1C(OC(C)(C)C)C(=O)O)CCCC3 (stereo not drawn) [Example 27],4.64,,57.5,
Cc1cc(C)n(-c2cccc(-c3c(C(OC(C)(C)C)C(=O)O)c(C)nc4sc5c(c34)CCCC5)c2)n1 (stereo not drawn) [Example 28],5.61,,29.6,
Cc1nc2sc3c(c2c(-c2ccc(N(C)C)nc2)c1C(OC(C)(C)C)C(=O)O)CCCC3 (stereo not drawn) [Example 29],5.73,,64.6,
Cc1nc2sc3c(c2c(-c2cnc4cc[nH]c4c2)c1C(OC(C)(C)C)C(=O)O)CCCC3 (stereo not drawn) [Example 30],6.63,,15.5,
CCOC(C(=O)O)c1c(C)nc2sc3c(c2c1-c1ccc2scnc2c1)CCCC3 (stereo not drawn) [Example 31],6.66,,> 100,
Cc1nc2sc3c(c2c(-c2ccc4[nH]ncc4c2)c1C(OC(C)(C)C)C(=O)O)CCCC3 (stereo not drawn) [Example 32],7.65,,> 100,
CCOC(C(=O)O)c1c(C)nc2sc3c(c2c1-c1ccc(C(F)(F)F)nc1)CCCC3 (stereo not drawn) [Example 33],8.19,,> 100,
CCOC(C(=O)O)c1c(C)nc2sc3c(c2c1-c1ccccc1CO)CCCC3 (stereo not drawn) [Example 34],8.97,,> 100,
CCOC(C(=O)O)c1c(C)nc2sc3c(c2c1-c1ccc2cnn(C)c2c1)CCCC3 (stereo not drawn) [Example 35],10.7,,> 100,
Cc1nc2sc3c(c2c(-c2c[nH]c4nccc-4c2)c1C(OC(C)(C)C)C(=O)O)CCCC3 (stereo not drawn) [Example 36],12,,> 100,
Cc1cc(-c2c(C(OC(C)(C)C)C(=O)O)c(C)nc3sc4c(c23)CCCC4)ccn1 (stereo not drawn) [Example 37],13.9,,> 100,

# Source: patent US9447116B2, “Inhibitors of HIV replication” (priority 2010, dated 2016)
